US11208415B2, “Substituted indole Mcl-1 inhibitors” (Vanderbilt University, priority 2014, dated 2021)

Molecular target: recombinant Mcl-1 (residues 172-327) (Homo sapiens (Human), UniProt Q07820)
Assay: Fluorescence polarization anisotropy competition assay (FITC-Bak or FITC-Bim BH3 peptide), Mcl-1
Type: binding
Conditions: FITC-labeled BH3 peptide (Bak or Bim) displacement; Ki converted from IC50; printed as range bins; read-out: Ki for Inhibition of Mcl-1

Sequence of recombinant Mcl-1 (residues 172-327) (Q07820 172-327): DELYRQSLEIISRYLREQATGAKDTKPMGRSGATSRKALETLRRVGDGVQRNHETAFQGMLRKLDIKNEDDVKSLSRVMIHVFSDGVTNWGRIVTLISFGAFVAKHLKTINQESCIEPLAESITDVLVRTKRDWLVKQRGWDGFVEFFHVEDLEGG

Cc1cc(OCCCc2c3n(c4c(-c5c(C)nn(C)c5C)c(Cl)ccc24)CCCN(c2cc(C(=O)O)c4cn(C)nc4c2)C3=O)cc(C)c1Cl [Example I-366, 6-(8-chloro-1-(3-(4-chloro-3,5-dimethylphenoxy)propyl)-1-oxo-7-(1,3,5-trimethyl-1H-pyrazol-4-yl)-4,5-dihydro-1H-[1,4]diazepino[1,2-a]indol-2(3H)-yl)-2-methyl-2H-indazole-4-carboxylic acid]
Ki: < 0.05 µM
